These results are taken from patent publication EP1352247B1, “ASSAY METHODS FOR IDENTIFYING COMPOUNDS WHICH MAY PROTECT STRATIFIED SQUAMOUS EPITHELIUM AGAINST DAMAGE BY NOXIOUS SUBSTANCES” (The Administrators of the Tulane Educational Fund, priority 2000, dated 2002).

SMILES strings stand for the structures.

The target of experiment [1] is T1, extracellular domain of human Uvomorulin/E-Cadherin (Homo sapiens, UniProt P12830).
T1 construct: the approximately 80 kD extracellular domain of Uvomorulin/E-Cadherin provided in the E-cadherin EIA kit; purchased Zymed Laboratories, San Francisco, CA
T1 sequence (P12830 155-709 limits assumed): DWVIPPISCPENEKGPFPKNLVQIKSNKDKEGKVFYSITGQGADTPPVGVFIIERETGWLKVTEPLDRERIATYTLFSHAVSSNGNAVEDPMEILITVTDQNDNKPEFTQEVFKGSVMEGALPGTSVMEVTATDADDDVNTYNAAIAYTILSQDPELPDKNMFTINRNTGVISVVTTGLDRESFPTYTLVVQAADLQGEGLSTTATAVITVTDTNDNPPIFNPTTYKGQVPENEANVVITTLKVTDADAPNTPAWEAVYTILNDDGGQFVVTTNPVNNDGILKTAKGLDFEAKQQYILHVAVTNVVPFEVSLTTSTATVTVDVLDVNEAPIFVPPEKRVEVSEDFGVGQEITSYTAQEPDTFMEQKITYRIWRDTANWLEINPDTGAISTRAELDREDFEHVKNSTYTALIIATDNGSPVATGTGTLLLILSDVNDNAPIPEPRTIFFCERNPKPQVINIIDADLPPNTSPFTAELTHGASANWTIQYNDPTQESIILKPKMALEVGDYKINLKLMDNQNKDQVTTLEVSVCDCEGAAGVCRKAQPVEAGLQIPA
The experiment is described as follows: Human E-cadherin EIA kit: competition with Mab binding to the extracellular domain of E-cadherin. To be noted: for % Binding: Mab binding vs vehicle control = 100. An excerpt:
The kit enables the antigen to be exposed to agents or antibodies prior to exposure to the standard Mab to the extracellular domain of Uvomorulin/E-cadherin. The ability of the agent or antibody to block the binding of the Mab to the extracellular domain of Uvomorulin/E-cadherin can then be used to determine if competition for binding sites on the antigen has occurred. Comparative binding is based on the quantity of binding observed when the Mab to Uvomorulin/E-cadherin is placed in contact with antigen in the absence of prior exposure to test agent or antibody. The experimental control for test agents is vehicle (normal Ringer solution) and for monoclonal or polyclonal antibodies is an equivalent amount of nonspecific immune serum globulin (IgG). The quantity of binding of the Mab to Uvomorulin/E-cadherin to antigen in the absence of test agent or test antibody is labeled as control and whose value is normalized to 100%.
The Human E-cadherin EIA kit (Zymed Laboratories, San Francisco, CA) was used as in the method described in Example 5 to determine binding of test compounds, SITS, SOS, CDDD-1192, CDDD-1193 and 1,3-benzene disulfonic acid (1,3-BDSA) to the approximately 80 kD extracellular domain of Uvomorulin/E-Cadherin provided in the E-cadherin EIA kit. This was done by adding the extracellular domain of human Uvomorulin/E-Cadherin to a solution with varying concentrations of the compounds in the nanomolar to millimolar range or with vehicle (control, normal Ringer solution) for […]. Following incubation for 2 hrs, the solution is added to a solid phase microtiter plate, provided in the EIA kit, to which a mouse monoclonal anti-human Uvomorulin/E-cadherin antibody (Zymed Laboratories, San Francisco, CA) is bound. This permits antigen with epitopes unoccupied by test compound to bind to the plate. After washing the plate with Tris buffer containing 0.1 % Tween-20 (Promega, Madison, Wisconsin) and 5 mM calcium chloride, the second mouse monoclonal anti-human Uvomorulin/E-cadherin antibody labeled with peroxidase is used to tag the bound antigen. After an additional incubation for 1 hr and washing with Tris buffer, the peroxidase is detected with substrate (hydrogen peroxide and tetramethyl-benzidine in buffered solution, as included in the EIA test kit) by incubating for 15 min at room temperature and stopping of the reaction with 1N […]. […] The amount of Uvomorulin/E-cadherin is quantitated by measuring absorbance at 450 nm within an hour following development using an EIA plate reader (Vmax Plate Reader, Molecular Devices, Sunnyvale, CA). The degree of binding of a compound to the extracellular domain of Uvomorulin/E-cadherin is determined by the reduction in antigen detection in the plate exposed to test compound compared to that for the control plate (100%) where no compound was present (Table 2).

The test system of experiment [2] is esophageal epithelium. The settings on record: cited from earlier work.
The test system of experiment [3] is rabbit esophageal epithelium.
Procedure: Sections of rabbit esophageal epithelium, mounted in Ussing chambers and stabilized for 45 min, were exposed both luminally and serosally to calcium-free solution containing EDTA, 3 mM.
Sections of rabbit esophageal epithelium were mounted in Ussing chambers and exposed luminally to trypsin, 0.01%, in the presence or absence of a calcium-free bathing solution.
Sections of rabbit esophageal epithelium were mounted in Ussing chambers and exposed luminally to either SITS, 4 mM, or vehicle (Ringer) as control for 30 min.
For experiment [4], the system named is rabbit esophageal epithelium. In words: Junctional resealing (recovery of R after calcium restoration or return to isoosmolality) in Ussing chambers. The settings on record: luminal 4 mM for 30 min and during calcium-free period; after restoration of calcium (0 mM SITS), n=3. Format: cell-based. An excerpt:
When calcium-containing (normal Ringer) solution was restored to the bathing solutions after 1, 2, or 4 hrs of calcium-free exposure, there was a progressive return of R toward initial baseline values, with complete reversibility observed for tissue exposed to calcium-free solution for 1 hr and 2 hr exposures and an 80% recovery in R for tissue exposed to calcium-free for 4 hrs within 1 hr of restoring calcium to the baths.
Sections of rabbit esophageal epithelium prepared as in Example 1 were exposed luminally and serosally to a calcium-free solution containing 3 mM EDTA to open the junctions as shown by the progressive decline in R to 60±4% and 65±4% of initial R for experimental and control tissues, respectively, by 2 hrs (n = 8 for each group, p > 0.05). Tissues were then treated luminally for 20 min with either 10 µg/ml of a monoclonal antibody (Mab) to Uvomorulin/E-cadherin (Sigma Chemical, St. Louis, MO) or, as control, to 10 µg/ml of nonspecific immune serum globulin (IgG). Following exposure to Mab or IgG, a calcium-containing (normal Ringer) solution was restored to the bathing solutions and the recovery of R monitored over time.
The intercellular junctions of stratified squamous epithelium can also be opened by exposure to hypertonic saline. […]

Take `O=S(=O)(O)c1cccc(S(=O)(=O)O)c1` [1,3 BDSA, 1,3-benzene disulfonic acid]: in experiment [1] (agent 4 mM), the “% Binding” value was found to be 104±3%. Moreover, the “effect against acid injury” value in experiment [2] (4 mM, as shown in U.S. Patent No. 5,189,056 and 5,374,537) was “ineffective against acid injury”.
Consider `CC(=O)Nc1ccc(C=Cc2ccc(N=C=S)cc2S(=O)(=O)O)c(S(=O)(=O)O)c1` [SITS, 4-acetamido-4'-isothiocyano-2,2'-stilbene disulfonate], for which the “% Binding” value in experiment [1] (agent 40 uM) came out at 77±3 %; in experiment [1] (agent 4 mM), 26±3 %; in experiment [1] (agent 8 mM), 20±3 %. Besides, the “R declined to” value in experiment [3] (calcium-free solution (3 mM EDTA) with 4 mM SITS, over 2 hr) turned out to be 68±3%. For the same molecule, the “recovery of R” value in experiment [4] is reported as 75±3%.
Turning to `O=S(=O)(O)OCC(OS(=O)(=O)O)C(Oc1ccccc1)c1ccc(N=C=S)cc1` (centres unmarked) [CDDD-1192, disodium 3-(4-isothiocyanatophenyl)-3 phenoxypropane-1,2-disulfate], the “% Binding” value in experiment [1] (agent 0.4 uM) turned out to be 103±6%; in experiment [1] (agent 4 mM), 77±13 %.
Regarding `O=C(O)CN(CCN(CC(=O)O)CC(=O)O)CC(=O)O` [EDTA], the “effect on R” value in experiment [3] (3 mM alone, over the described time frame (up to 4 hrs)) is listed as “no effect on R”.
Consider `O=S(=O)(O)OCC(OS(=O)(=O)O)C(Oc1ccc(N=C=S)cc1)c1ccc(N=C=S)cc1` (centres unmarked) [CDDD-1193, disodium 3-(4-isothiocyanatophenoxy)-3-(4-isothiocyanatophenyl)propane-1,2-disulfate], for which the “% Binding” value in experiment [1] (agent 40 nM) came to 110±6%; in experiment [1] (agent 40 uM), 83±3 %; in experiment [1] (agent 4 mM) it was 38±0.75 %.
On to `O=S(=O)(O)OC[C@H]1O[C@@](COS(=O)(=O)O)(O[C@H]2O[C@H](COS(=O)(=O)O)[C@@H](OS(=O)(=O)O)[C@H](OS(=O)(=O)O)[C@H]2OS(=O)(=O)O)[C@@H](OS(=O)(=O)O)[C@@H]1OS(=O)(=O)O` [SOS, sucrose octasulfate], for which the “binding to the extracellular domain of Uvomorulin/E-cadherin / inhibition of Mab binding (in words)” value in experiment [1] was “dose-dependently binds”. For the same molecule, the entries for the “% Binding” value in experiment [1] (agent 4 mM) and in experiment [1] (agent 10 mM) were 83±0.3 % and 76±0.3 %, respectively. Also, the “protection against acid-induced injury, reversibility” value in experiment [2] was “irreversibly protect”.
